The text below walks through data of patent US20090202499A1, “Human Telomerase Reverse Transcriptase Peptides” (priority 2006, published 2009).

Assay [1] has as its system T2-B7 pulsed with peptide. In words: small scale in vitro immunization of normal donor PBMC (96 well plate), micro 51Cr-release CTL assay. As to conditions: for CTL response (specific lysis) Donor 1 / CTL response (specific lysis) Donor 2 / CTL response (specific lysis) Donor 3 / CTL response (specific lysis) Donor 4 / CTL response (specific lysis) Donor 5 / CTL response (specific lysis) Donor 6 / CTL response (specific lysis) Donor 7 / CTL response (specific lysis) Donor 8: HLA-B7+ normal donor PBMC, day 10-11, approximate E:T 10:1; for CTL response of normal donor PBMC in micro-CTL assay (in words): eight HLA-B7+ normal donors; for Low R/Total: low responders among eight donors; for High R/Total: responders considered at >50% specific CTL lysis, eight donors. The assay is classed as cell-based, human. As for the experimental part:
In vitro immunization procedures. In experiments shown in Table III and FIG. 3, immunizations were performed in 96 well plates. Briefly, 2×10^5 irradiated (6000 rads) human PBMC were plated in 96 (flat) well-plate in 100 micro-liters of complete human medium (RPMI 1640 medium containing 10% heat inactivated human AB serum, 2 mM glutamine, 50 micro-grams/ml streptomycin and 50 micro-grams/ml penicillin) with 100 micro-grams/ml of peptide. 12 wells per peptide were plated per patient. Then 2×10^5 PBMC in 100 micro-liters of complete human medium were added into each well. Four days later 100 micro-liters of medium were replaced with 100 micro-liters of fresh complete human medium containing 80 IU/ml of IL-2. At day 6-7, 100 IU/ml of IL-2 were added and wells were split into two. On day 10-11 micro-cytotoxicity assay was performed. In experiments shown in FIGS. 4 and 5 human PBMC were stimulated in vitro in 24 well plate with autologous, irradiated, peptide-pulsed adherent cells in the presence of IL-2 and IL-7 as previously described (12). On day 4 to 5 after restimulation, effector CTL were tested in a standard ^51Cr-release assay.
(§1) CTL assays. Both murine and human CTL were detected by the ^51Cr release assay performed as previously described (14). Briefly, HLA-B7^+ antigen presenting cells (RMA-B7 or T2-B7 cells) were labeled for 1 hr with 100 micro-Ci of Na2^51CrO4 (Perkin Elmer). Washed cells (5×10^3 per well) were mixed in 96-well plates in 100 micro-liters/well with each peptide (at 10 micro-grams/ml or lower concentration) and 100 micro-liters of the CTL effector cells (at various E:T ratio) in RPMI medium. The plates were incubated for 4-5 hrs at 37° C. (5% CO2). The supernatants were harvested and counted on a Wallac 1470 Wizard Gamma counter. The percent lysis was calculated as 100 (cpmexp−cpmspont)/(cpmmax−cpmspont).
To further assess the immunogenicity of the selected peptide candidates as well as their ability to expand precursor CD8 T cell in human PBMC, the following experiment was performed. PBMC from eight HLA-B7^+ normal donors were screened in a small scale in vitro immunization assay (96 well plate assay) to determine the level of responses against each individual peptide. As indicated the response to these peptides varied among the eight donors. […] Thus, the results of this in vitro assay narrowed the spectrum of immunogenic peptides beyond those identified in vivo in HLA-B7 Tg mice. A typical result of this type of analysis is shown in FIG. 3, which depicts the induction of CTL and their specificity in each of the twelve wells. As shown, there is considerable variability in the number of positive wells per peptide as well as in the percentage lysis which itself varied from peptide to peptide. This variation in the response to each peptide may be related to either an intrinsic characteristic of the peptide (e.g., its avidity) or a variation in the frequency of CD8 T cell precursors for that peptide among donors particularly in view of the format of the assay used.
PBMC from HLA-B7^+ normal blood donors were pulsed with the candidate peptide in 96 well plate assay (described in Material and Methods), and tested for lysis of T2-B7 pulsed with peptide on day 10-11. A micro ^51Cr-release assay was performed as described in Material and Methods. Responders were considered at >50% specific CTL lysis. CTL assays were performed at an approximate E:T ratio of 10:1. ND not done

The test system of assay [2] is RMA-B7 cells pulsed with the homologous hTRT peptide. In words: peptide immunization of HLA-B7 Tg mice, 51Cr-release assay. The following applies: 100 micrograms peptide + HBV helper peptide in IFA, s.c. Format: in vivo. As for the experimental part:
FIG. 1. […] HLA-B7 Tg mice were vaccinated with 100 micrograms of individual hTRT peptide together with 120 micrograms of HBV helper peptide in IFA. Ten days after immunization, spleen lymphocytes were restimulated in vitro with peptide and fresh, irradiated syngeneic APC. Restimulations were performed on a weekly basis. A standard 4 hour ^51Cr-release assay was performed on day 5 after in vitro restimulation, using RMA-B7 cells pulsed with the homologous hTRT peptide as targets and an E:T ratio of 25:1. Results are expressed as the mean specific lysis plus or minus standard deviation of responder mice only, whose number is indicated in each panel. Tests were run in duplicate.
In vivo immunization procedures. Peptide immunization. HLA B7 transgenic mice (28) were injected s.c. at the base of the tail with 100 micro-grams of hTRT peptides along with 120 micro-grams of I-A^b MHC Class II helper peptide 128-140 of the hepatitis B virus core protein in incomplete Freunds' adjuvant as described previously (12). Long-term CTL lines were maintained in culture by weekly restimulation with irradiated, peptide-pulsed syngeneic spleen cells in RPMI-1640 medium containing 10% heat inactivated fetal bovine serum, 2 mM glutamine, 5×10^−5 M 2-Mercaptoethanol, 50 micro-grams/ml streptomycin, and 50 micro-grams/ml penicillin (complete medium) and supplemented with 40 IU/ml of recombinant human IL-2.
as §1
In order to assign immunogenicity to each of the peptides and correlate this property with the binding characteristics and the scores of the predictive algorithms, we immunized HLA-B7 Tg mice (28). Ten to eleven days after immunization mice were sacrificed, the spleen harvested and splenocytes put in culture with LPS/Dextran activated APC, and tested in a 4 hour ^51Cr-release assay. As shown, only five out of seven peptides yielded a meaningful, specific CTL response even after a third cycle of in vitro restimulation (FIG. 1). All immunogenic peptides induced a response from the first in vitro restimulation and this response increased upon subsequent rounds of antigen restimulation. As noted the lysis of peptide-pulsed RMA-B7 target cells increased at each round of in vitro restimulation. No lysis occurred on RMA-B7 cells not pulsed with peptide. Thus, the in vivo results together with the actual measure of the avidity of HLA-B7 binding avidity distinguished two groups of 9mer hTRT peptides.

“Also recorded” adds a separate entry of the source.

`CC(C)C[C@H](NC(=O)[C@H](CO)NC(=O)[C@@H](NC(=O)[C@H](C)NC(=O)[C@H](CCC(=O)O)NC(=O)[C@H](CCC(=O)O)NC(=O)[C@H](C)NC(=O)[C@@H]1CCCN1C(=O)[C@@H](N)CCCNC(=N)N)[C@@H](C)O)C(=O)O` [p277]: in assay [1], the “CTL response (specific lysis) Donor 1” value is over 50%, the “CTL response (specific lysis) Donor 2” value was over 50%, the “CTL response (specific lysis) Donor 3” value is reported as over 50% and the “CTL response (specific lysis) Donor 4” value is given as over 50%. In addition, in assay [1], the “CTL response (specific lysis) Donor 5” value is given as over 50%, the “CTL response (specific lysis) Donor 6” value is under 25%, the “CTL response (specific lysis) Donor 7” value is under 25% and the “CTL response (specific lysis) Donor 8” value is on record as under 25%. In assay [1], the “CTL response of normal donor PBMC in micro-CTL assay (in words)” value (shortened to “CTL response of normal donor PBMC”) is “strong responses in the majority of the subjects”, the “Low R/Total” value is 0/8 and the “High R/Total” value was 5/8. The “immunogenicity in vivo, CTL response after peptide immunization (in words)” value (from here on “immunogenicity in vivo, CTL response”) in assay [2] is recorded as “good immunogenicity in vivo”.

On to `CC(C)C[C@H](NC(=O)[C@H](CO)NC(=O)[C@H](CO)NC(=O)[C@H](CC(C)C)NC(=O)[C@H](CC(C)C)NC(=O)[C@H](Cc1ccccc1)NC(=O)[C@H](CO)NC(=O)[C@@H]1CCCN1C(=O)[C@@H](N)CCCNC(=N)N)C(=O)O` [p342], for which, in assay [1], the “CTL response (specific lysis) Donor 1” value is reported as over 25%, the “CTL response (specific lysis) Donor 2” value was over 25%, the “CTL response (specific lysis) Donor 3” value is over 25% and the “CTL response (specific lysis) Donor 4” value is over 50%. Moreover, in assay [1], the “CTL response (specific lysis) Donor 5” value came to 0%, the “CTL response (specific lysis) Donor 6” value is reported as under 25%, the “CTL response (specific lysis) Donor 7” value is given as over 25% and the “CTL response (specific lysis) Donor 8” value is reported as 0%. In assay [1], the “CTL response of normal donor PBMC” value is on record as “strong responses but in fewer instances only”, the “Low R/Total” value is on record as 4/8 and the “High R/Total” value is listed as 1/8. Besides, the “immunogenicity in vivo, CTL response” value in assay [2] is given as “good immunogenicity in vivo”.

Regarding `CC(C)C[C@H](NC(=O)[C@H](CC(C)C)NC(=O)[C@H](CCC(N)=O)NC(=O)[C@@H](NC(=O)[C@H](CC(C)C)NC(=O)[C@H](CCCNC(=N)N)NC(=O)[C@H](CCCNC(=N)N)NC(=O)[C@@H]1CCCN1C(=O)[C@@H](N)CC(=O)O)C(C)C)C(=O)O` [p444], in assay [1], the “CTL response (specific lysis) Donor 3” value was under 25%, the “CTL response (specific lysis) Donor 4” value is over 25%, the “CTL response (specific lysis) Donor 5” value came to 0% and the “CTL response (specific lysis) Donor 6” value came out at 0%. In assay [1], the “CTL response (specific lysis) Donor 7” value was determined as 0%, the “CTL response (specific lysis) Donor 8” value is on record as under 25%, the “CTL response of normal donor PBMC” value is listed as “poorly immunogenic in vitro; also recorded: poor immunogenicity” and the “Low R/Total” value is on record as 1/8. For the same molecule, the “High R/Total” value in assay [1] was 0/8. Further, the “immunogenicity in vivo, CTL response” value in assay [2] is recorded as “not immunogenic in vivo; also recorded: poor immunogenicity; also recorded: poorly immunogenic”.

With `CC(C)C[C@H](NC(=O)[C@H](CCCNC(=N)N)NC(=O)[C@H](CCCNC(=N)N)NC(=O)[C@H](CC(C)C)NC(=O)[C@H](CS)NC(=O)[C@H](C)NC(=O)[C@H](CCCNC(=N)N)NC(=O)[C@@H](NC(=O)[C@@H](N)Cc1ccccc1)C(C)C)C(=O)O` [p464], in assay [1], the “CTL response (specific lysis) Donor 1” value is over 50%, the “CTL response (specific lysis) Donor 2” value is listed as over 50%, the “CTL response (specific lysis) Donor 3” value worked out at 0% and the “CTL response (specific lysis) Donor 4” value was over 25%. Also, in assay [1], the “CTL response (specific lysis) Donor 5” value is given as under 25%, the “CTL response (specific lysis) Donor 6” value is reported as under 25%, the “CTL response (specific lysis) Donor 7” value is given as under 25% and the “CTL response (specific lysis) Donor 8” value was found to be 0%. In addition, in assay [1], the “CTL response of normal donor PBMC” value is recorded as “strong responses but in fewer instances only”, the “Low R/Total” value was 1/8 and the “High R/Total” value is listed as 2/8. In addition, the “immunogenicity in vivo, CTL response” value in assay [2] is “good immunogenicity in vivo”.

Regarding `CC(C)C[C@H](NC(=O)[C@H](C)NC(=O)[C@@H](NC(=O)[C@H](CC(C)C)NC(=O)[C@@H](NC(=O)[C@@H](NC(=O)CNC(=O)[C@@H]1CCCN1C(=O)[C@@H](N)CC(C)C)[C@@H](C)O)[C@@H](C)O)[C@@H](C)O)C(=O)O` [p1107, LPGTTLTAL], in assay [1], the “CTL response (specific lysis) Donor 1” value is over 50%, the “CTL response (specific lysis) Donor 2” value is listed as over 50%, the “CTL response (specific lysis) Donor 3” value was 0% and the “CTL response (specific lysis) Donor 4” value is listed as over 50%. For the same molecule, in assay [1], the “CTL response (specific lysis) Donor 5” value is over 25%, the “CTL response (specific lysis) Donor 6” value is listed as under 25%, the “CTL response (specific lysis) Donor 7” value is on record as over 25% and the “CTL response (specific lysis) Donor 8” value came out at 0%. For the same molecule, in assay [1], the “CTL response of normal donor PBMC” value is “strong responses but in fewer instances only”, the “Low R/Total” value is listed as 2/8 and the “High R/Total” value was 3/8. In assay [2], the “immunogenicity in vivo, CTL response” value is “good immunogenicity in vivo”.

With `CC[C@H](C)[C@H](NC(=O)[C@@H](NC(=O)[C@H](CCCCN)NC(=O)[C@H](Cc1ccccc1)NC(=O)[C@H](CC(=O)O)NC(=O)[C@H](CO)NC(=O)[C@@H]1CCCN1C(=O)[C@@H](N)CC(C)C)[C@@H](C)O)C(=O)N[C@@H](CC(C)C)C(=O)O` [p1123], in assay [1], the “CTL response (specific lysis) Donor 1” value was over 50%, the “CTL response (specific lysis) Donor 2” value is given as over 50%, the “CTL response (specific lysis) Donor 3” value is over 50% and the “CTL response (specific lysis) Donor 4” value is under 25%. Besides, in assay [1], the “CTL response (specific lysis) Donor 5” value is reported as over 50%, the “CTL response (specific lysis) Donor 6” value is over 50%, the “CTL response (specific lysis) Donor 7” value is over 50% and the “CTL response (specific lysis) Donor 8” value is over 50%. In addition, in assay [1], the “CTL response of normal donor PBMC” value is on record as “strong responses in the majority of the subjects”, the “Low R/Total” value is recorded as 0/8 and the “High R/Total” value is 7/8. For the same molecule, in assay [2], the “immunogenicity in vivo, CTL response” value is reported as “good immunogenicity in vivo”.
